From patent publication US20040013649A1, “Cancer vaccines and methods of using the same” (Inex Pharmaceuticals Corporation, priority 2002, published 2004)
Entries after “also recorded” stand apart in the source; their conditions may differ. [5mC] = 5-methylcytosine

Assays:
B16/BL6 murine melanoma = assay: therapeutic anti-tumor efficacy, B-16 melanoma tumor model; type: in vivo, C57BI/6 mice; details: lipid encapsulated (DSPC:CHOL:DODAP:PEGCer14); 20 mg/kg ODN i.v. every other day from day 4
Procedure: Anti-tumor efficacy induced by intravenous tail immunization was assessed in C57BI/6 (8 animals per group) in a therapeutic immunization model. Animals were challenged with a subcutaneous injection of 3.0×10^5 […] B16/BL6 murine melanoma expressing tumor cells on Day-0. Mice were then treated intravenously every other day starting on day 4 for 14 days at a dose of 20 mg/kg ODN. Mice were monitored every other day to assess tumor growth and weight gain. Control mice were injected with HBS on the same schedule described above. Oligonucleotides were encapsulated in a lipid particle having a lipid composition of DSPC: CHOL: DODAP:PEGCer14 each in a ratio of 25:45:20:10. Results from this efficacy experiments are detailed in FIGS. 16 and 17. Day 0 on each of the Figures is the day each animal was challenged with the tumor.

dendritic cells [1] = assay: expansion of dendritic cells (CD11c, DEC205) in spleen, blood and lymph nodes; type: in vivo, ICR mice; details: lipid encapsulated; single i.v. injection 20 mg/kg; versus PBS control = 100%; 20 mg/kg
Procedure: ICR mice were immunized with a single intravenous injection of encapsulated oligonucleotides at a dose of 20 mg/kg and the control ICR mouse was injected with PBS. […] Each of these markers are specific to dendritic cells though they may represent different cell sub-populations. In each of FIGS. 4 and 5 the control was plotted as equivalent to 100% and the effect of ODN1m for each backbone configuration was plotted as a percentage of that control.

dendritic cells [2] = assay: in vivo dendritic cell activation (IFN-γ secreting cells); details: encapsulated in POPC:CHOL:DODMA:PEGDMG 20:45:25:10
Procedure: PBS was used as a control.
FIG. 3 clearly illustrates the ability of encapsulated ODN1m to activate dendritic cells. […] Dendritic cell activation was measured by the percentage of IFN-γ secreting cells. These cells were labeled with an antibody to indicate the cell type and only those having the dendritic cell marker were included in this measurement.

[3] = tested on: dendritic cells, NK cells, and CD8+ T-cells; assay: cytokine release assay after subcutaneous immunization; type: in vivo, C57BI/6 mice; details: lipid encapsulated; 100 μg ODN + 20 μg antigen s.c. q7d×3; FIGS. 10 and 11
Procedure: To monitor immunological response to subcutaneous immunization, antigen specific cellular immune responses were monitored using MHC Class.l-tetramer analyses, cytotoxicity assays and cytokine release assays while humoral immune responses were monitored by measuring plasma antibody levels. Cellular and humoral responses were assessed in C57BI/6 and Balb/C mice respectively (5 animals per group). For analysis of the cellular response, mice were immunized subcutaneously with 3 injections on a q7d×3 dosing regimen on Days 0, 7 and 14 at a dose of 100 μg oligonucleotide in combination with 20 μg of antigen . The spleen, liver, lymph node and blood tissues were collected on Day 21. Solid tissues were mechanically dissociated and cells were processed to collect mononuclear cells. […]
The aim of the cytokine release assay is to detect antigen-specific immune effector cells that are activated to produce and secrete cytokines, specifically IFN-γ, in response to stimulation with a specific antigen. Cells were isolated from the spleen, liver, blood and lymph nodes of immunized animals and analyzed using the Cytokine Secretion Assay (Miltenyi Biotec). […] Cells were then labeled with fluorescently labeled antibodies against IFN-γ and various phenotype markers and analyzed by flow cytometry to allow detection of specific cell types that were activated to secrete IFN-γ. […]

## ODN1m: 5′-TAAZGTTGAGGGGCAT-3, SEQ ID NO: 4, Z = methylated cytosine (DNA TAACGTTGAGGGGCAT; DNA, [5mC] at 4, backbone not given here; tested with both phosphodiester and phosphorothioate backbones)
B16/BL6 murine melanoma
  reduction of tumor volume: increased its efficacy in reducing tumor volume
Dendritic cells [1]
  expansion of CD11c positive dendritic cells: stimulated the expansion of CD11c positive dendritic cells in spleen cells and whole blood cells but not in lymphoid tissue; also recorded: stimulated the expansion of CD11c positive cells in spleen and whole blood
Dendritic cells [2]
  dendritic cell activation (percentage of IFN-γ secreting cells): more active than its unmethylated counterpart; also recorded: more active than the unmethylated counterpart ODN1
[3]
  immune stimulation (cytokine secretion of dendritic cells, NK cells, CD8+ T-cells), methylated normalized to unmethylated ODN: consistently at least equivalent to, and often better than
